Marks after values point to notes of the source that are not given here.
Key:
[1] = target: T1, α3β2 nAChR (Homo sapiens, UniProt P17787+P32297); assay: Two-electrode voltage-clamp of ACh-induced currents in Xenopus oocytes; assay type: cell-based; conditions: 1 μM PAM
T1 construct: expressed in transfected cells; host or cells: Xenopus laevis oocytes injected with cRNA

[2] = target: (α4R65H)3(β2)2 nAChR (Homo sapiens, UniProt P43681, R65H); design: method as in PMID 28446611; conditions: 10 µM ACh + 1 µM dFBr vs 10 µM ACh alone; data reported previously ref 29; cited from earlier work
(α4R65H)3(β2)2 nAChR, sequence (P43681 29-627 R65H limits assumed): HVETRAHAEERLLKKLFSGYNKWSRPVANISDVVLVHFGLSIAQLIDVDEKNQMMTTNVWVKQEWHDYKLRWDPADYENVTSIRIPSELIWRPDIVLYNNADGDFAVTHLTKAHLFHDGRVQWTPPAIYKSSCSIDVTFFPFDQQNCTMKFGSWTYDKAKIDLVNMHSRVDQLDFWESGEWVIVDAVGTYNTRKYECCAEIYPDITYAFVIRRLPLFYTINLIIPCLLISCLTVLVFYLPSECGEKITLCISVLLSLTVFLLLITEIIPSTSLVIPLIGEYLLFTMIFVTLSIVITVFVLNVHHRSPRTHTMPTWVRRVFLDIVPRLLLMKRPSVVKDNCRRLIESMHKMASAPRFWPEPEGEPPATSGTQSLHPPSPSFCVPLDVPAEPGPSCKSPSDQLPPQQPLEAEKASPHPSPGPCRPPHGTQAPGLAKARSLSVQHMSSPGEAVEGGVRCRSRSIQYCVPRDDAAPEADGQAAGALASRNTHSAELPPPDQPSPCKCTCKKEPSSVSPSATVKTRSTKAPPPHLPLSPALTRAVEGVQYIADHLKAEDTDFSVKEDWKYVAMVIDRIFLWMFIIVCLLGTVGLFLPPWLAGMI
(α4R65H)3(β2)2 nAChR, sequence (P17787 26-502 partner): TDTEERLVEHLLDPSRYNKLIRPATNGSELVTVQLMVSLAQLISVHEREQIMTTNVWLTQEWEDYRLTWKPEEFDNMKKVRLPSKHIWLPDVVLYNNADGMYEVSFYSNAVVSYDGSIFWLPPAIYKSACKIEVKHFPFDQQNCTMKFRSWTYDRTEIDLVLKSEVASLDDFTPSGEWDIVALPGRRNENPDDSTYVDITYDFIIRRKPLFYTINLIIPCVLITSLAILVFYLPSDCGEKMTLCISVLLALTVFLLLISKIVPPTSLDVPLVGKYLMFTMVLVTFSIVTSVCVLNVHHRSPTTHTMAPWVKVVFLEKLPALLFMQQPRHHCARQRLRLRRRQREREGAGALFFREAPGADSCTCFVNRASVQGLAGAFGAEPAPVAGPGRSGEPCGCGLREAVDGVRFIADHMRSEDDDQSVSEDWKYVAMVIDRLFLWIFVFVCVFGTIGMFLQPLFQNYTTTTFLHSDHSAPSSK

[3] = target: (α4G67E)3(β2)2 nAChR (Homo sapiens, UniProt P43681, G67E); design: method as in PMID 28446611; conditions: 10 µM ACh + 1 µM dFBr vs 10 µM ACh alone; data reported previously ref 29; cited from earlier work
(α4G67E)3(β2)2 nAChR, sequence (P43681 29-627 G67E limits assumed): as the sequence (P43681 29-627 R65H limits assumed) above, with H37R, G39E counted along it
(α4G67E)3(β2)2 nAChR, sequence (P17787 26-502 partner): as the sequence (P17787 26-502 partner) above

[4] = target: (α4H94N)3(β2)2 nAChR (Homo sapiens, UniProt P43681, H94N); design: method as in PMID 28446611; conditions: 10 µM ACh + 1 µM dFBr vs 10 µM ACh alone; data reported previously ref 29; cited from earlier work
(α4H94N)3(β2)2 nAChR, sequence (P43681 29-627 H94N limits assumed): as the sequence (P43681 29-627 R65H limits assumed) above, with H37R, H66N counted along it
(α4H94N)3(β2)2 nAChR, sequence (P17787 26-502 partner): as the sequence (P17787 26-502 partner) above

[5] = target: (α4Q150T)3(β2)2 nAChR (Homo sapiens, UniProt P43681, Q150T); design: method as in PMID 28446611; conditions: 10 µM ACh + 1 µM dFBr vs 10 µM ACh alone; data reported previously ref 29; cited from earlier work
(α4Q150T)3(β2)2 nAChR, sequence (P43681 29-627 Q150T limits assumed): as the sequence (P43681 29-627 R65H limits assumed) above, with H37R, Q122T counted along it
(α4Q150T)3(β2)2 nAChR, sequence (P17787 26-502 partner): as the sequence (P17787 26-502 partner) above

[6] = test system: animal model; design: method as in PMID 23712602, PMID 28446611, PMID 28809075, PMID 28105008; conditions: cited from earlier work
[7] = test system: animal model; design: method as in PMID 23712602, PMID 28446611, PMID 28809075, PMID 28105008; conditions: cited from earlier work; remark: listed apart in the source
[8] = test system: animal model; design: method as in PMID 23712602, PMID 28446611, PMID 28809075, PMID 28105008; conditions: cited from earlier work; remark: listed apart in the source

T1 sequence (P32297 32-505): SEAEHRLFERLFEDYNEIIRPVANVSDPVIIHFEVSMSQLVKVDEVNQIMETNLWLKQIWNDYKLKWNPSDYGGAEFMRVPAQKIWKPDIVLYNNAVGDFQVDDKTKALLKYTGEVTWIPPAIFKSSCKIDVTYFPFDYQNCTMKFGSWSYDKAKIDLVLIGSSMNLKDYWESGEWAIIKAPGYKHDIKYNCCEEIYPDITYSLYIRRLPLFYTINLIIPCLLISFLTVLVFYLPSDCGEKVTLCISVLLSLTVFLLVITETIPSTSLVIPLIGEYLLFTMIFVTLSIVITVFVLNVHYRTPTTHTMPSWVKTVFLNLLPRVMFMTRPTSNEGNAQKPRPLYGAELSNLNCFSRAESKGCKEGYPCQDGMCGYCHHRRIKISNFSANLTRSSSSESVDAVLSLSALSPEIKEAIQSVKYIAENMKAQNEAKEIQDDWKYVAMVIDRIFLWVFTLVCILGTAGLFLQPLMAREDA
T1 sequence (P17787 26-502): as the sequence (P17787 26-502 partner) above

SMILES: C=CC(C)(C)c1[nH]c2cc(Br)ccc2c1CCNC [dFBr]
- potentiation of ACh responses [1]: did not potentiate
- R, potentiation ratio (PR) [2]: 5.3 ± 1.8^a
- R, potentiation ratio (PR) [3]: 4.1 ± 0.2^a
- R, potentiation ratio (PR) [4]: 5.8 ± 0.5^a
- R, potentiation ratio (PR) [5]: 3.9 ± 0.1^a
- nicotine self-administration [6]: reduce nicotine self-administration
- antiallodynic response of nicotine [7]: potentiate the antiallodynic response of nicotine
- nicotine withdrawal signs [8]: reverse nicotine withdrawal signs

— paper PMC5775429, “LY2087101 and dFBr share transmembrane binding sites in the (α4)3(β2)2 Nicotinic Acetylcholine Receptor” (Scientific Reports, 2018)
